Like-named read-outs stand apart in the source and are kept apart here. Marks after values point to notes of the source that are not given here.
Legend:
SHR = tested on: SHR; parameters: method as in 5 sources, ref 30 = [30]; PMID 7673515; doi:10.3168/jds.S0022-0302(95)76745-5; 30 Nakamura Y , Yamamoto N , Sakai K , Takano T ( 1995 ) Antihypertensive effect of sour milk and peptides isolated from it that are inhibitors to angiotensin I-converting enzyme . J Dairy Sci 78 : 12 ||| ref 31 = [31]; PMID 8880454; doi:10.3168/jds.S0022-0302(96)76487-1; 31 Maeno M , Yamamoto N , Takano T ( 1996 ) Identification of an antihypertensive peptide from casein hydrolysate produced by a proteinase from Lactobacillus helveticus CP790 . J Dairy Sci 79 : 1316 – ||| ref 32 = [32]; PMID 9891260; doi:10.3168/jds.S0022-0302(98)75878-3; 32 Abubakar A , Saito T , Kittazawa H , Kawai Y , Itoh T ( 1998 ) Structural analysis of new antihypertensive peptides derived from cheese whey protein by proteinase K digestion . J Dairy Sci 81 : 313 ||| ref 33 = [33]; PMID 10794501; doi:10.1016/s0024-3205(00)00471-9; 33 Nurminen ML , Sipola M , Kaarto H , Pihlanto-Leppälä A , Piilola K , et al ( 2000 ) α-Lactorphin lowers blood pressure measured by radiotelemetry in normotensive and spontaneously hypertensive rats ||| ref 34 = [34]; 34 Miguel M , Contreras MM , Recio I , Aleixandre A ( 2009 ) ACE-inhibitory and antihypertensive properties of a bovine casein hydrolysate . Food Chemistry 112 : 211 – 214 .; settings: cited from earlier work
ACE = settings: literature value; cited from earlier work
Text: In the past decades, researchers have focused on the natural nutraceutical resources and investigated the potential antihypertensive activity in vitro by ACE-inhibitory activity, [5]. Some natural phytochemicals from plants, including rutin, quercetin glycoside, epicatechin-tetramer and cyanidin-3-O-sambubioside have been extensively studied as a substitute for chemo-pharmaceuticals [6]–[8]. Also, some antihypertensive peptides have been identified from hydrolyzed or fermented milk and other dietary sources. Among them, the Isoleucine-Proline-Proline (IPP) and Valine-Proline- ...

ACE from rabbit lungs = test: ACE inhibitory activity in vitro (HHL hydrolysis, HPLC of hippuric acid); format: biochemical; settings: 10 µmol/L peptide, crude ACE extract from rabbit lung, 5 mmol/L HHL, 37°C, 10 min pre-incubation + 20 min, RP-HPLC 228 nm, mean ± SD
Procedure: ACE extracts were prepared and its activity was determined according to the method of Nakamura et al. and Wu & Ding with some modifications. Briefly, the fresh rabbit lung without connective tissues was cut into pieces and washed with precooled NaCl (0.7%) to get rid of blood. The tissue pieces were homogenized in precooled 5-fold the volume of fresh rabbit lung weight (v/w, mL/g) of 100 mM sodium borate buffer (BBS) (pH 8.3). The mixtures were then filtrated with 3-ply gauze followed by ultracentrifuged for 40 min (40,000 g, at 4°C). The supernatant as crude ACE extracts was retained and stored at 5°C [24].
The ACE activity was assayed using the method described by Wu & Ding. It was based on the hydrolysis of hippuryl-L-histidyl-L-leucine (HHL) by ACE to hippuric acid (HA) and histidyl-leucine (HL) as products. The HA release from HHL was directly related to the ACE activity. One unit (U) of ACE was defined as the amount of enzyme catalyzing the release of 1 µmol/L HA from the substrate HHL per minute at 37°C. Briefly, 30 µL of ACE crude extracts were mixed with 100 µL of BBS (pH 8.3). The mixture was incubated at 37°C for 10 min. Then, 200 µL of 5 mmol/L HHL solution substrate were added and the reaction mixture was incubated at 37°C for 20 min. The reaction was stopped by the addition of 250 µL of 1 mol/L HCl. 10 µL of solution were analyzed by reversed-phase HPLC and detected at the wavelength of λ = 228 nm. The column was eluted with 20% acetonitrile (in water, v/v) containing 0.1% (v/v) TFA on AKATA purifier 10 with a flow rate of 1.0 mL/min. The blank experiment was executed with premixing 250 µL of 1 mol/L HCl and 30 µL of ACE crude extracts to inhibit the activity of ACE.
Evaluation of ACE inhibitory activity was assayed using the same method described in above section with some modifications. Briefly, 2 µL of ACE crude extracts were mixed with 80 µL of 10 µmol/L each selected peptide solution. The mixture was incubated at 37°C for 10 min, after which 200 µL of 5 mmol/L HHL solution substrate were added and the reaction mixture was incubated at 37°C for 20 min. Finally, 250 µL of 1 mol/L HCl were added to stop the reaction and 10 µL of solution were used to analyze HA release from HHL by reversed-phase HPLC with the same condition described above and detected at the wavelength of λ = 228 nm. Controls with equal volume of BBS as sample substitute were included for each measurement, and the blank experiment was executed with premixing 250 µL of 1 mol/L HCl and 2 µL of ACE crude extracts to inhibit the activity of ACE, firstly.
The evaluation of ACE inhibition was based on the measurement of the HA peak areas, and the degree of ACE inhibition (%) was calculated according to Eq.1: [drawing 1] (Eq.1) […]

[1] = normoglycemic and normotensive animal model; cited from earlier work
Text: It is necessary to evaluate the ACE-inhibitor effect on the blood glucose level of hyperpietics simultaneously since blood sugar was positively correlated with blood pressure (systolic and diastolic), and this correlation was independent of common associations with age, body mass index (BMI) and heart rate.

[2] = tested on: spontaneously hypertensive rats (SHR/Slac); test: Systolic blood pressure of SHR after single intragastric administration (tail-cuff); format: in vivo, rat; settings: for dose-dependence of the lowering SBP effect: 0.75 versus […] BW, relative lowering SBP rate
Procedure: The spontaneously hypertensive, strain SHR/Slac male rats (Production Permit Number: SCXK (Shanghai) 2007-0005; Body weight, average ∼400 g; Age, 20 weeks old), were purchased from Shanghai SLAC Laboratory Animal Co. Ltd. (Shanghai, China). The SHR were housed in cages and maintained under specific pathogen-free conditions on a cycle of 12 h of light and 12 h of darkness at Center of Experimental Animal, School of Pharmacy, Shanghai Jiao Tong University (Use Permit Number: SYXK (Shanghai) 2007-0025). The temperature and humidity in the cages were controlled at 24±1°C and 60±5%, respectively. SHRs were acclimatized for 7 days prior to experimentation. The rats were fed a standard laboratory diet (SLACOM; Shanghai, China), and tap water was freely available. After the hexapeptide water-solution (dose, 1.5 mg/kg body weight) injection with intragastric administration in six SHR, the systolic blood pressure (SBP) of each rat was measured by the tail-cuff method with a programmable electrosphygmomanometer (model SoftronBP-98A; Softron Beijing Incorporated, Beijing, China) at 1 h interval. A heater lamp was on the tail to improve signal quality. To obtain an accurate SBP reading, rats were first habituated to the SBP measurement device. Definitive measurements began when rats remained unperturbed into the chamber throughout the inflation-deflation cycles. The SBP in each SHR with administration of distilled water (2 mL) was used as the control value. The data are expressed as means and standard errors (n = 6).
To evaluate whether the lowering SBP effect was the dose-dependence relative to the test peptides, the SHR were also treated with 0.75 mg/kg BW peptides water-solution as above program. And the relative lowering SBP effect was calculated as the following equation (Eq.2): [drawing 2] (Eq.2) where SBPinitial is the initial SBP values of SHR right before the peptide administration, SBPlowest is the lowest SBP value obtained within 5 h after the administration with the tested peptides.

SERCA 2a gene = test: Quantitative real time-PCR of SERCA 2a gene mRNA in SHR heart; format: in vivo, rat; settings: 3 h after feeding the peptide, GAPDH reference, three biological replicates
Procedure: Quantitative real time-PCR (qRT-PCR) analysis was performed using SYBR Premix EX Taq (TaKaRa) on a Rotor-Gene R[…] detection system (Corbett Research) as described by Zhang et al. (2010) with the exception of the annealing temperature at 58 °C when using the primers […]) and […]), [26]. Gene GAPDH was used as reference gene with primer […]) and […]). Three biological replicates were used, and each with three technical repeats.

Row | Compound | ACE inhibition rate (%) (ACE from rabbit lungs) | dose-dependence of the lowering SBP effect [2] | transcriptional level of SERCA 2a gene (SERCA 2a gene) | also measured
1 | YGLF [whey protein derived tetrapeptide] |  |  |  | reduction of SBP (SHR; SHR, subcutaneous, 0.1 mg/kg BW): 23±4 mmHg
2 | Valine-Proline-Proline [VPP] | 37.62±6.68^b % |  |  | IC50 (ACE): 9 µM
3 | KVLPVPQ [heptapeptide KVLPVPQ (β-casein 169–175aa)] |  |  |  | maximal decrease in SBP (SHR; SHR, 2 mg/kg BW): 31.5±5.6 mmHg
4 | C[C@H](CS)C(=O)N1CCC[C@H]1C(=O)O [captopril] |  |  |  | effect on postprandial blood glucose levels [1]: no significant effect; decrease in SBP (SHR; male SHR, 50 mg/kg, 4–6 h after administration): about 53±4 mmHg
5 | Valine-Proline-Proline-Isoleucine-Proline-Proline [VPPIPP] | 34.71±4.38^b % | dose-dependent effect | 3.98 times of the control | relative lowering SBP rate, comparison between peptides ([2]; 0.75 mg/kg BW, intragastric): did not show significantly different from IPPVPP and IPP
6 | Isoleucine-Proline-Proline-Valine- Proline-Proline [IPPVPP] | 13.17±0.25^c % | did not | 2.70 times of the control | 
7 | Isoleucine-Proline-Proline [IPP] | 56.97±2.40^a % | dose-dependent effect | 3.80 times of the control | IC50 (ACE): 5 µM; decrease in SBP (SHR; SHR, 0.3 mg/kg BW): 21.7±4.1 mmHg

Source: paper PMC3640069 (PLoS ONE, 2013)
